From article PMC11940238, “Ru(II) Complexes with 3,4-Dimethylphenylhydrazine: Exploring In Vitro Anticancer Activity and Protein Affinities” (Biomolecules, 2025) come the findings set out here.

Common to all, as to type: cell-based, human
Experiment [1] has as its system MDA-MB-231 cells. Kind of experiment: Examination of the cell cycle. The following applies: MDA-MB-231, 24 h, p < 0.01.
Experiment [2] relates to MMP2. Kind of experiment: Gelatin gel electrophoresis of supernatants, MMP2 activity, MDA-MB-231. The following applies: MDA-MB-231, 75 µM complex 1 or 50 µM complex 2, 24 and 48 h treatments. The protocol: (§1) MDA-MB-231 and MIA PaCa-2 cells were treated with 50 µM of complex 2 or 75 µM and 100 µM of complex 1, respectively. The treatments lasted 24 and 48 h. Untreated cells were used as control. The supernatants were collected for further analysis. Electrophoresis in a polyacrylamide gel with an add-on of 0.1% SDS and 0.2% gelatin was used to measure metalloproteinase 2 and 9 activity (MMP2 and MMP9).
(§2) The gels were imaged with a ChemiDoc Imaging System (Bio-Rad Laboratories, Hercules, CA, USA) and estimated by densitometric scanning using the Image Lab (Bio-Rad Laboratories, Inc. Version 6.0.0.25) software tool.

Experiment [3] relates to MMP2. Description: Gelatin gel electrophoresis of supernatants, MMP2 activity, MIA PaCa-2. The following applies: MIA PaCa-2, 100 µM complex 1 or 50 µM complex 2, 24 and 48 h treatments. As to the method: as §1, §2
Experiment [4] relates to MMP9. Kind of experiment: Gelatin gel electrophoresis of supernatants, MMP9 activity, MDA-MB-231. The protocol: as §1, §2
Experiment [5] relates to MIA PaCa-2 cells. Description: Malondialdehyde and protein carbonyl concentrations in the medium. The following applies: MIA PaCa-2, 24 h, 100 µM complex 1 or 50 µM complex 2, vs control. As to the method:
(§3) MDA-MB-231 and MIA PaCa-2 cells were treated with 50 µM of complex 2 or 75 µM and 100 µM of complex 1, respectively, for 24 h. Untreated cells were used as control. The supernatants were collected and used for further analyses. Lipid peroxidation was estimated by a spectrophotometric assay based on the absorption maximum of the malondialdehyde (MDA) complex with thiobarbituric acid in an acidic environment and high temperature. 1,1,3,3-Tetramethoxypropane was used as standard. Absorbance was read on the ELISA reader using a 540 nm filter. The concentration was determined using a standard curve. The determination of protein carbonyl (PC) concentration was based on the method of Levin and associates. Absorbance was read on the ELISA reader using a 375 nm filter.

Experiment [6] has as its system MDA-MB-231 cells. The description is as above. The following applies: MDA-MB-231, 24 h, 75 µM complex 1 or 50 µM complex 2, vs untreated cells. As to the method:
as §3

The test system of experiment [7] is MIA PaCa-2 cells. Kind of experiment: Examination of the cell cycle. The following applies: MIA PaCa-2, 24 h.
The subject of experiment [8] is MMP9. Kind of experiment: Gelatin gel electrophoresis of supernatants, MMP9 activity, MIA PaCa-2. The protocol: as §1, §2
Experiment [9] deals with MIA PaCa-2 cells. Description: MTT test. The following applies: MIA PaCa-2, 24 h treatment. The protocol: (§4) The human breast cancer cell line (MDA-MB-231) and human pancreatic cancer cell line (MIA PaCa-2) were obtained from the American Type Culture Collection (ATCC). The cells were cultured in 25 cm^2 flasks with DMEM supplemented with 100 U/mL penicillin-streptomycin, 10% FBS, at 37 °C with 5% CO2 in a humidified incubator.
(§5) Cells were harvested when they reached 85–90% confluent. 100 µL of cell suspension (15.000 cells per well) was poured into the wells of the 96-well plate and incubated overnight to allow the cells to attach to the well. The cells were treated with 1 or 2 in concentrations ranging from 0.19 to 200 µM. Untreated cells were used as control. After 24 h, 10 µL MTT (5 mg/mL) was added to each well. Cultures were incubated for […] at 37 °C. The reduction process was stopped by adding 100 µL/well of 10% SDS acidified with 1N HCl. Dissolution of the resulting blue color was continued overnight in the incubator at 37 °C. All treatments were done in replicates of three. The absorbance was read at 540 nm on an ELISA reader (RT-6100, Rayto, Shenzhen, China). The ratio of absorbances of treated to untreated living cells was used to measure viability. Cytotoxic activity was recorded as IC50, which is the concentration necessary to reduce the absorbance of treated cells by 50% compared to the control.
A general note: Tetrazolium dyes change colour on reduction, which living cells bring about.

Experiment [10] concerns MDA-MB-231 cells. Kind of experiment: MTT test. The following applies: MDA-MB-231, 24 h treatment. The protocol: as §4, §5

A word on the IC50: it is the concentration that gives 50% inhibition. High values mean lower potency, low ones higher potency. On to `Cc1ccc(C(C)C)cc1.Cc1ccc(C(C)C)cc1.Cc1ccc(NN)cc1C.[Cl-].[Cl][Ru].[Cl][Ru][Cl]` [complex 2, Chlorido(μ-chlorido)(η^6-p-cymene)(μ-3,4-dimethylphenylhydrazine-κ^2N,N′)ruthenium(II)-dimer chloride], for which the “number of cells in the G0/G1 phase” value with MDA-MB-231 cells [1] is reported as “significantly decreased”. Also, in the experiment with MDA-MB-231 cells [1], the “number of cells in the S phase” value is reported as “increased”. Further, the MMP2 activity result with MMP2 [2] and with MMP2 [3] was “No changes” in each case. The MMP9 activity result in the experiment on MMP9 [4] (MDA-MB-231, 50 µM complex 2, 24 and 48 h treatments) is given as “did not affect”; with MMP9 [8] (MIA PaCa-2, 50 µM complex 2, 24 and 48 h treatments), “did not affect”. Besides, the “MDA concentration in the medium” value with MIA PaCa-2 cells [5] is given as “significantly reduced”; in the experiment with MDA-MB-231 cells [6], “increased”. In addition, the “PC concentration in the medium” value in the experiment with MIA PaCa-2 cells [5] and in the experiment with MDA-MB-231 cells [6] was “decreased” in each case. The “effect on the cell cycle” value in the experiment on MIA PaCa-2 cells [7] is “did not affect”. Further, the IC50 in the experiment with MIA PaCa-2 cells [9] and in the experiment on MDA-MB-231 cells [10] was 50 µM in each case.
As for “Dichlorido(η^6-p-cymene)(3,4-dimethylphenylhydrazine-κN)ruthenium(II) [complex 1]”, in the experiment with MDA-MB-231 cells [1], the “number of cells in the G0/G1 phase” value is listed as “significantly decreased”. Moreover, the “number of cells in the S phase” value with MDA-MB-231 cells [1] was “increased”. The MMP2 activity result with MMP2 [2] and with MMP2 [3] was “No changes” in each case. Also, the MMP9 activity entry was “significantly lower” in the experiment with MMP9 [4] (MDA-MB-231, 75 µM complex 1, after 48 h, compared to control and 24 h treatment (p < 0.01)); “significantly lower” with MMP9 [8] (MIA PaCa-2, 100 µM complex 1, after 48 h, compared to control and 24 h treatment (p < 0.05)). For the same molecule, the “MDA concentration in the medium” value in the experiment on MIA PaCa-2 cells [5] was “significantly reduced”; in the experiment on MDA-MB-231 cells [6], “reduces”. The “PC concentration in the medium” value is “increased” in the experiment on MIA PaCa-2 cells [5] and “reduces MDA concentration but not PC” with MDA-MB-231 cells [6]. In addition, the “effect on the cell cycle” value with MIA PaCa-2 cells [7] was “did not affect”. Further, the IC50 was determined as 100 µM in the experiment with MIA PaCa-2 cells [9] and 75 µM in the experiment on MDA-MB-231 cells [10].
